Holding throughout (format): in vivo
Settings in all cases: 1000 g/h, evaluated after 13 days, five point scale

The subject of assay [1] is Stellaria media (STEME). The assay can be described thus: Glasshouse herbicide test, pre-emergence. The method, then:
(§1) Seeds of a variety of test species are sown in standard soil in pots Alopecurus myosuroides (ALOMY), Amaranthus retoflexus (AMARE), Setaria faberi (SETFA), Echinochloa crus-galli (ECHCG), Lolium perenne (LOLPE), Solanum nigrum (SOLNI), Stellaria media (STEME) and Digitaria sanguinalis (DIGSA). After cultivation for one day (pre-emergence) or after 8 days cultivation (post-emergence) under controlled conditions in a glasshouse (at 24/16° C., day/night; 14 hours light; 65% humidity), the plants are sprayed with an aqueous spray solution derived from the formulation of the technical active ingredient in acetone/water (50:50) solution containing 0.5% Tween 20 (polyoxyethelyene sorbitan monolaurate, CAS RN 9005-64-5). Compounds are applied at 1000 g/h. The test plants are then grown in a glasshouse under controlled conditions in a glasshouse (at 24/16° C., day/night; 14 hours light; 65% humidity) and watered twice daily. After 13 days for pre and post-emergence, the test is evaluated for the percentage damage caused to the plant. The biological activities are shown in the following table on a five point scale (5=80-100%; 4=60-79%; 3=40-59%; 2=20-39%; 1=0-19%).

The test system of assay [2] is Digitaria sanguinalis (DIGSA). Nature of the assay: Glasshouse herbicide test, pre-emergence. The method, then: as §1
For assay [3], the system named is Amaranthus retoflexus (AMARE). Nature of the assay: Glasshouse herbicide test, pre-emergence. As for the experimental part: as §1
The test system of assay [4] is Lolium perenne (LOLPE). The assay can be described thus: Glasshouse herbicide test, pre-emergence. The method, then:
as §1

The test system of assay [5] is Stellaria media (STEME). The assay can be described thus: Glasshouse herbicide test, post-emergence. The method, then: as §1
Assay [6] has as its system Digitaria sanguinalis (DIGSA). The assay can be described thus: Glasshouse herbicide test, post-emergence. The method, then:
as §1

Assay [7] has as its system Amaranthus retoflexus (AMARE). Nature of the assay: Glasshouse herbicide test, post-emergence. As for the experimental part: as §1
For assay [8], the system named is Lolium perenne (LOLPE). Nature of the assay: Glasshouse herbicide test, post-emergence. As for the experimental part: as §1
In assay [9] the test system is Solanum nigrum (SOLNI). Nature of the assay: Glasshouse herbicide test, pre-emergence. As for the experimental part:
as §1

The test system of assay [10] is Setaria faberi (SETFA). Nature of the assay: Glasshouse herbicide test, pre-emergence. The method, then: as §1
The test system of assay [11] is Alopecurus myosuroides (ALOMY). The assay can be described thus: Glasshouse herbicide test, pre-emergence. As for the experimental part:
as §1

In assay [12] the test system is IPOHE. The assay can be described thus: Glasshouse herbicide test, pre-emergence. As for the experimental part:
[The procedure below names another species; the source lists this species under the same test.] as §1

Assay [13] deals with Echinochloa crus-galli (ECHCG). The assay can be described thus: Glasshouse herbicide test, pre-emergence. As for the experimental part: as §1
Assay [14] relates to Solanum nigrum (SOLNI). Nature of the assay: Glasshouse herbicide test, post-emergence. As for the experimental part:
as §1

Assay [15] concerns Setaria faberi (SETFA). The assay can be described thus: Glasshouse herbicide test, post-emergence. The method, then:
as §1

Assay [16] concerns Alopecurus myosuroides (ALOMY). Nature of the assay: Glasshouse herbicide test, post-emergence. As for the experimental part:
as §1

For assay [17], the system named is IPOHE. The assay can be described thus: Glasshouse herbicide test, post-emergence. The method, then: [The procedure below names another species; the source lists this species under the same test.] as §1
In assay [18] the test system is Echinochloa crus-galli (ECHCG). The assay can be described thus: Glasshouse herbicide test, post-emergence. The method, then:
as §1

`Cn1cnnc1NC(=O)c1ccc(S(C)(=O)=O)c(COCC(F)(F)F)c1Cl` [Compound 1.001]: the “percentage damage caused to the plant, STEME, PRE Application” value with Stellaria media (STEME) [1] is reported as 1 (1=0-19%). Besides, in [2], the “percentage damage caused to the plant, DIGSA, PRE Application” value is reported as 1 (1=0-19%). Besides, the “percentage damage caused to the plant, AMARE, PRE Application” value in assay [3] was 3 (3=40-59%). The “percentage damage caused to the plant, LOLPE, PRE Application” value in the assay on Lolium perenne (LOLPE) [4] was 1 (1=0-19%). In the assay on Stellaria media (STEME) [5], the “percentage damage caused to the plant, STEME, POST Application” value was 5 (5=80-100%). Further, the “percentage damage caused to the plant, DIGSA, POST Application” value in assay [6] is given as 5 (5=80-100%). Besides, the “percentage damage caused to the plant, AMARE, POST Application” value in [7] was 5 (5=80-100%). The “percentage damage caused to the plant, LOLPE, POST Application” value with Lolium perenne (LOLPE) [8] is given as 1 (1=0-19%).

As to `Cc1ccc(C(F)(F)F)c(C(=O)Nc2nncn2C)c1` [Compound 2.006], the “percentage damage caused to the plant, SOLNI, PRE Application” value in the assay with Solanum nigrum (SOLNI) [9] is on record as 3 (3=40-59%). For the same molecule, the “percentage damage caused to the plant, SETFA, PRE Application” value in the assay on Setaria faberi (SETFA) [10] is on record as 1 (1=0-19%). In addition, the “percentage damage caused to the plant, ALOMY, PRE Application” value in assay [11] was 1 (1=0-19%). Moreover, in the assay on IPOHE [12], the “percentage damage caused to the plant, IPOHE, PRE Application” value was 3 (3=40-59%). Also, the “percentage damage caused to the plant, AMARE, PRE Application” value in [3] (second table) is 2 (2=20-39%). The “percentage damage caused to the plant, ECHCG, PRE Application” value in assay [13] is recorded as 1 (1=0-19%). Moreover, in the assay with Solanum nigrum (SOLNI) [14], the “percentage damage caused to the plant, SOLNI, POST Application” value is reported as 4 (4=60-79%). The “percentage damage caused to the plant, SETFA, POST Application” value with Setaria faberi (SETFA) [15] is given as 1 (1=0-19%). Also, the “percentage damage caused to the plant, ALOMY, POST Application” value in [16] is reported as 1 (1=0-19%). In addition, the “percentage damage caused to the plant, IPOHE, POST Application” value in the assay on IPOHE [17] was 2 (2=20-39%). Further, in assay [7] (second table), the “percentage damage caused to the plant, AMARE, POST Application” value was 2 (2=20-39%). The “percentage damage caused to the plant, ECHCG, POST Application” value in assay [18] is on record as 1 (1=0-19%).

The values are drawn from patent US20150065345A1, “1,2,4 - TRIAZOLE DERIVATIVES AS HERBICIDALS” (SYNGENTA LIMITED, priority 2012, published 2015).
